Assay results: patent US8088889B2, “Teneurin c-terminal associated peptides (TCAP) and uses thereof” (priority 2002, dated 2012)
“Also recorded” adds a separate entry of the source. Ends that are not written are not given here.

Legend:
Gn11 cells [1] = test: cAMP accumulation in Gn11 immortalized neurons (Example 12); assay type: cell-based, mouse; conditions: for cAMP accumulation at 1 nM (in words): FIG. 25A/B
Procedure: (§1) Gn11 immortalized neurons were cultured as previously reported (Tellam et al., 1998) Direct cAMP measurements were performed with the nonacetylated version of a commercial kit (Assay Designs, Ann Arbor, Mich.). After starved by serum-free DMEM for 1 hr and replaced with fresh DMEM without serum, cells were treated for 15 min with TCAP, urocortin or vehicle±CRFR1 antagonist PD171729 in the continued presence of forskolin (1_M) and IBMX (100_M. Protein assays: Total protein was determined using the BCA protein assay method (Pierce Co). MTT Assays: Gn11 cells were seeded into 96-well plates and cultured in full serum DMEM until the cells were 30% confluent. Vehicle, 1 nM, 10 nM or 100 nM TCAP-1 were added into each group (n=8). (FIG. 25A) The MTT assay (Sigma Chemicals) was performed at 0, 6, 12, 24 and 48 hours. Flow Cytometry: DNA content of the Gn11 cells was quantified by staining with propridium iodide and analyzed on a FACSCAN flow cytometer (Beckman Instruments).

Gn11 cells [2] = test: cGMP assay in Gn11 cells (Example 7, I); assay type: cell-based, mouse; conditions: 10^-6 M
Procedure: (§2) Medium and peptide was removed and the cells were lysed using 350 uL of a 0.1 M HCL 0.1% Triton X-100 solution. […] All reactions were done in triplicates. Wells were set up for blanks, non-specific binding, total activity (TA), zero binding, five standards, and 12 samples. […] The plate was allowed to shake overnight. The following morning, the wells were rinsed three times with a 10 times diluted wash buffer solution. 50 uL of conjugate was added to the TA wells and 200 uL of p-Npp substrate was added to each well. The plate was covered again and incubated at room temp for one hour. At this point, 50 uL of stop solution was added to all wells and the absorbance was read at 405 nm using a Spectramax spectrophotometer. Three levels of controls were utlized: A blank tube which provides a measure of any reactivity between p-Npp substrate and IgG coated wells.; TA: measure of activity of alkaline phosphotase in conjugate, if any; NSB: measure of binding of conjugate to plate or to antibody; Bo: measure of binding conjugate to antibody (no sample and conjugate competition).

Gn11 cells [3] = test: cAMP assay in Gn11 cells (Example 7, I); assay type: cell-based, mouse; conditions: 10^-6 M
Procedure: as §2

rats = test: Acoustic startle response after TCAP-1 injection; assay type: in vivo, rat
Excerpt: Male Wistar rats (250-275 g), were surgically implanted with cannulae (23 gauge) bilaterally into the basolateral nuclei of the amydala (AP −2.8, ML +/−5.0, DV −7.2 mm, from bregma). One week later, the animals were habituated to the acoustic startle reflex (ASR) chambers (MED Associates, grid rod cage measuring 7.5″×3.6″×4.2″), consisting of 25 trials of 120 dB stimuli presented randomly with an inter-stimulus interval of 55-65 seconds, duration of 30 msecs and frequency of 5000 Hz. The same stimulus conditions were used for test days, which consisted of a 25 trial baseline, injection with mouse TCAP-1 (with amidation signal)[SEQ. ID. NO. 40] or vehicle (0.25 μl/side, flow rate 0.5 μl/min), and testing for a further 60 trials post-drug. Each rat received vehicle treatment on the first test day then TCAP-1 (e.g. mouse TCAP-1) in a random and counter balanced fashion in subsequent test days, spaced 48 h apart. On the final test day, all rats again received vehicle treatment. Following histological analysis of cannulae placements, the data of eight rats was retained for statistical analysis.
From the data, rats were divided into high and low anxiety groups depending upon their treatment/baseline ratio for the vehicle. Animals that scored less than one were considered low anxiety, those scoring more than one were considered high anxiety. There were four animals in each anxiety group.

Gn11 cells [4] = test: Total protein, BCA protein assay, Gn11 cells; assay type: cell-based, mouse; conditions: 1, 10 and 100 nM, after 120 minutes
Procedure: as §1

Gn11 cells [5] = test: MTT assay, Gn11 cells; assay type: cell-based, mouse; conditions: 48 hours
Procedure: as §1

N38 hypothalamic cells = test: Microarray gene expression in N38 hypothalamic cells; assay type: cell-based, mouse; conditions: 1 nM
Procedure: Total RNA (TRNA) was isolated from 3 independent treated and untreated N38 hypothalamic cell cultures, pooled (to reduce the noise), utilizing Trizol Reagent (GIBCO/BRL) following the manufacturer's protocol. The quality of total RNA was assessed using an Agilent 2100 Bioanalyzer (version A.02.01S1232, Agilent Technologies). Only RNA with the OD ratio of 1.99-2.0 at 260/280 was used.
Hybridizations were performed on the Mouse MU74Av2 GeneChip Set (Affymetrix, Santa Clara, Calif.). Samples were prepared for hybridization according to Affymetrix instructions. Briefly, a primer encoding the T7 RNA polymerase promoter linked to oligo-dT17 was used to prime double-stranded cDNA synthesis from each mRNA sample using Superscript II RNase H^− reverse transcriptase (Life Technologies, Rockville, Md.). Each purified (Qiaquick kit, Qiagen) double-stranded cDNA was in vitro transcribed using T7 RNA polymerase (T7 kit; Enzo), incorporating biotin-UTP and biotin-CTP (Enzo Biochemicals, New York, N.Y.) into the cRNAs, followed by purification using RNEasy (Qiagen) and quantitated by measuring absorption at 260 nm/280 nm. Samples were fragmented and hybridized to the Chip for 16 h at 45° C. and scanned (GeneArray scanner, Affymetrix). MicroArray Suite Version 5 (MASv5; Affymetrix) was used to scale intensities across the Genechips to 150 fluorescence units, and to determine expression values for each gene on the chip. The expression value for each gene was determined by calculating the average of differences (perfect match intensity minus mismatch intensity) of the probe pairs in use for the gene.
Gene analysis software: Data analysis was performed using two independent softwares, GeneChip and GeneSpring. To identify differentially expressed transcripts, pairwise comparison analyses were carried out with MicroArray Suite Version 5 MicroArray Suite Version 5 (MASv5; Affymetrix). This approach, which is based on the Mann-Whitney pairwise comparison test, allows the ranking of results by concordance, as well as the calculation of significance (P value) of each identified change in gene expression. Statistically significant genes (P<0.05) were selected for further analysis. Moreover, statistically significant changes in mean expression values were determined by importing the data from MASv5 into GeneSpring 5 (Silicon Genetics, Redwood City, Calif.). A stepwise process was followed, first with normalizations. A per-chip followed by a per-gene normalization in order to facilitate direct comparison of biological differences. Next, a second method of filter using Affymetrix data and p value with cut-off of P<0.005 generated 4,841 genes which were used for subsequent analysis utilizing Hierarchical Clustering, k-means, Self Organization Map (SOM) utilizing GeneSpring 5.0.
RNAs isolated from treated and untreated cells were analyzed on oligonucleotide arrays representing 12,884 mouse genes (Affymetrix, http://www.affymetrix.com). Standard filtering (p<0.005) and hierarchical clustering algorithm (average linage method: GeneSpring software—Silicon Genetics) identified significant changes in the expression of 4, 841/12,885 genes with 166 genes showing 1.5 fold down-regulation and 35 genes up-regulation in the TCAP-1-treated cells compared to the untreated cells. […] A G-protein coupled receptor-related signal transduction pathway is indicated by the regulation of genes, CREM, AKAP8, AKAP95 and PDE6A. […] The upregulation in inducible nitric oxide (INOS), a intracellular voltage-gated chloride channel (CLCN3) and the serotonin transporter (SLC6A4) may reflect the down stream actions of cAMP-mediated signal cascade and indicates the potential for TCAP to be involved in neuronal signaling systems. A role in interneuron communication by TCAP is also indicated by the modulation of genes associated with the regulation of vesicle trafficking. […]

Gn11 cells [6] = test: Flow cytometry DNA content analysis, Gn11 cells; assay type: cell-based, mouse; conditions: after 24 hours
Procedure: as §1

[7] = micro injected into the basolateral amygdala, 3, 30, 300 pmoles
[8] = 16 hours, relative to untreated control
[9] = treated compared to untreated cells

mouse urocortin: CRF family peptide compared with mouse TCAP-1 in Gn11 cells (DDPPLSIDLTFHLLRTLLELARTQSQRERAEQNRIIFDSV; ends and bridges not checked) [reference compound]
cAMP accumulation at 1 nM (in words) (Gn11 cells [1]; 1 nM): increased cAMP accumulation

rat urocortin: CRF family peptide used for the purpose of a positive control (DDPPLSIDLTFHLLRTLLELARTQSQRERAEQNRIIFDSV; ends and bridges not checked; UniProt P55090 81-120, looked up) [reference compound]
cGMP accumulation, % of the control cells (Gn11 cells [2]): 50.0±8.5% | cGMP accumulation (in words) (Gn11 cells [2]; FIG. 16B): significant (p<0.05) decrease | cAMP accumulation, % of the vehicle-treated cells (Gn11 cells [3]): 89.2±6.3%

TCAP-1: synthetic mouse teneurin-1 C-terminal associated peptide, SEQ. ID. NO: 37 or 38, with amidation signal (QQLLGTGRVQGYDGYFVLSVEQYLELSDSANNIHFMRQSEIGRR-NH2)
acoustic startle response (rats; administration into the lateral ventricle or amygdala of rats): normalized the acoustic startle response | relation of effect on startle response to baseline startle response (rats; amygdala-injected, FIG. 24): inversely proportional to the baseline startle response | startle magnitude, animals with high treatment-to-baseline ratio (>1) (rats; [7]): significant (p<0.05) decrease | startle magnitude, animals with low treatment-to-baseline ratio (<1) (rats; [7]): significant (p, 0.05) and does dependent increase | increase of cAMP levels over the vehicle-treated cells (Gn11 cells [1]; 1 nM, 15 minutes): 45% | cAMP accumulation at 1 nM (in words) (Gn11 cells [1]; 1 nM): increased cAMP | cAMP accumulation at 10 nM (in words) (Gn11 cells [1]; 10 nM, FIG. 25A): without effect | decrease of cAMP accumulation from control cells (Gn11 cells [1]; 100 nM, 15 minutes): 40% | cAMP accumulation at 100 nM (in words) (Gn11 cells [1]; 100 nM, FIG. 25A): decreased (p<0.05) cAMP | total protein concentration (Gn11 cells [4]): significant increase; also recorded: stimulated protein synthesis | MTT activity (mitochondrial activity) at 1 nM (Gn11 cells [5]; 1 nM): significant (p<0.05) increase; also recorded: increased MTT activity | MTT activity (mitochondrial activity) at 100 nM (Gn11 cells [5]; 100 nM): decrease; also recorded: decreased (p<0.05) MTT activity | Fold change AKAP8 (A kinase anchor protein 8) (N38 hypothalamic cells; [8]): 1.58 fold | Fold change AKAP95 (A kinase anchor protein 95) (N38 hypothalamic cells; [8]): 0.60 fold | Fold change ALK3 (Bone morphogenic protein receptor) (N38 hypothalamic cells; [8]): 0.60 fold | Fold change AP4S1 (Adaptor related protein complex) (N38 hypothalamic cells; [8]): 1.52 fold | Fold change ARF1 (ADP ribosylation factor 1) (N38 hypothalamic cells; [8]): 0.63 fold | Fold change BARK1 (β adrenergic receptor kinase 1) (N38 hypothalamic cells; [8]): 0.61 fold | Fold change BMP4 (Bone morphogenic protein-4) (N38 hypothalamic cells; [8]): 0.52 fold | Fold change CAII (Casein kinase II) (N38 hypothalamic cells; [8]): 0.61 fold | Fold change CAMIII (Calmodulin III) (N38 hypothalamic cells; [8]): 0.53 fold | Fold change CD95 (Fas antigen) (N38 hypothalamic cells; [8]): 0.61 fold | Fold change CLCN3 (Chloride channel protein 3) (N38 hypothalamic cells; [8]): 1.66 fold | Fold change CLM2-B (Cytohesin-2) (N38 hypothalamic cells; [8]): 0.63 fold | Fold change CRD-BP (CRD-binding protein) (N38 hypothalamic cells; [8]): 0.59 fold | Fold change CREMβ1 (cAMP-responsive element modulator) (N38 hypothalamic cells; [8]): 1.61 fold | Fold change DIP1/2 (DAB2 interacting protein) (N38 hypothalamic cells; [8]): 0.68 fold | Fold change ERK1 (Mitogen activated protein kinase) (N38 hypothalamic cells; [8]): 0.64 fold | Fold change FNBX (Ferredoxin-NADP reductase) (N38 hypothalamic cells; [8]): 1.61 fold | Fold change GAS5 (Growth arrest specific transcript) (N38 hypothalamic cells; [8]): 0.46 fold | Fold change GBP3 (Guanylate binding protein) (N38 hypothalamic cells; [8]): 0.63 fold | Fold change GDAP10 (Ganglioside induced diff. protein 10) (N38 hypothalamic cells; [8]): 1.62 fold | Fold change GP25L2 (gp25L brings cargo forward from ER) (N38 hypothalamic cells; [8]): 1.53 fold | Fold change GR (Glucocorticoid receptor) (N38 hypothalamic cells; [8]): 0.66 fold | Fold change IL1R (Interleukin 1 receptor) (N38 hypothalamic cells; [8]): 0.60 fold | Fold change INI1B (Integrase interacting protein 1B) (N38 hypothalamic cells; [8]): 0.48 fold | Fold change INOS (Inducible nitric oxide synthetase) (N38 hypothalamic cells; [8]): 1.50 fold | Fold change MKI67 (Cell cycle protein regulator) (N38 hypothalamic cells; [8]): 1.70 fold | Fold change MMP1 (Matrix metalloproteinase 1) (N38 hypothalamic cells; [8]): 0.55 fold | Fold change MMP10 (Matrix metalloproteinase 10) (N38 hypothalamic cells; [8]): 0.59 fold | Fold change MOP3 (Circadian rhythm regulator) (N38 hypothalamic cells; [8]): 1.57 fold | Fold change P202 (202 interferon activatable protein) (N38 hypothalamic cells; [8]): 0.61 fold | Fold change P204 (Interferon activatable protein) (N38 hypothalamic cells; [8]): 1.85 fold | Fold change PCDHγ (protocadherin γ) (N38 hypothalamic cells; [8]): 0.42 fold | Fold change PDE6A (cGMP Phosphodiesterase α) (N38 hypothalamic cells; [8]): 1.68 fold | Fold change PPAN (Peter Pan homologue) (N38 hypothalamic cells; [8]): 0.62 fold | Fold change PTK7 (Receptor protein tyrosine kinase) (N38 hypothalamic cells; [8]): 1.53 fold | Fold change RAB10 (Ras oncogene homologue) (N38 hypothalamic cells; [8]): 1.62 fold | Fold change SDPR (Serum deprivation response protein) (N38 hypothalamic cells; [8]): 0.57 fold | Fold change SLC6A4 (Serotonin transporter) (N38 hypothalamic cells; [8]): 1.53 fold | Fold change SSG1 (Steroid sensitive gene 1) (N38 hypothalamic cells; [8]): 0.62 fold | Fold change ST7 (Suppressor of tumourigenicity) (N38 hypothalamic cells; [8]): 1.97 fold | Fold change TTF-1IP (TTF-1 interacting peptide) (N38 hypothalamic cells; [8]): 0.50 fold | Fold change YIPID (Rab-mediated membrane transport) (N38 hypothalamic cells; [8]): 1.88 fold | number of genes showing 1.5 fold down-regulation (N38 hypothalamic cells; [9]): 166 genes | number of genes showing up-regulation (N38 hypothalamic cells; [9]): 35 genes | incidence of G1 phase at 1 nM (Gn11 cells [6]; 1 nM): reduced (p<0.05) the incidence of G1 phase | incidence of G1 phase at 100 nM (Gn11 cells [6]; 100 nM): increased (p<0.05) G1 phase
